Results from patent US7381521B2, “Anti-pathogenic composition useful in blood preservation” (Altachem Pharma Ltd., priority 2001, dated 2008).
“And” between values parts separate entries of the source, which are not always exact repeats. Equal entries are not always repeated.

What was measured:
[1] = test system: erythrocytes in heparinized bovine blood; experiment: In-vitro hemolysis of erythrocytes in heparinized whole blood, absorbance at 413 nm; conditions: 1 hour at 37° C.
Method: The effect of the compounds on the in-vitro hemolysis of erythrocytes in heparinized whole blood is monitored by a spectrophotometric method.
Various formulations and concentrations of the test compound are added to heparinized bovine blood and mixed gently in a 1.5 ml microcentrifuge tube. The sample is allowed to incubate for 1 hour at 37° C. At the end of incubation, the samples are removed from the incubator and centrifuged at 2000 rpm for 5 minutes. A 200 μl aliquot of the supernatant is removed from each sample into a 96 well microtiter plate and read at 413 nm. The absorbance of the test sample is compared to the control sample containing phosphate buffered saline, pH 7.2.

[2] = test system: S. aureus ATCC 6538; experiment: Test 2 (DGHM), action as a function of disinfection time at 22° C., 8 × 10^8 organisms/ml; assay type: cell-based, Staphylococcus aureus
Method: (§1) Another test was carried out a basis of the following solutions • 100 ml of a 0.1% solution of chlorohexidine digluconate (pH 6); and • 100 ml of a 0.1% solution of Bardac22®.
(§2) The activity of these solutions, alone or in combination, was more particularly tested in respect of Staphylococcus aureus ATCC 6538, Escherichia coli ATCC 11229 and Candida albicans ATCC 10231.
(§3) The tests were conducted in accordance with the procedure described in Chapter I/2.1 and 2.2 of Tichtlinien für die Prüfung und Bewertung chemischer Desinfektionsverfahren der DGHM/Guidelines for Testing and Evaluating Chemical Disinfection Processes of DGHM as at 1.1, 1981.

[3] = test system: S. aureus ATCC 6538; experiment: Test 2 (DGHM), growth inhibition by dilutions, 72 hours at 37° C.; assay type: cell-based, Staphylococcus aureus
Method: as §1, §2, §3
Tables IX, X and XI respectively illustrate the bactericidal and fungicidal activity of a 0.1% aqueous solution of chlorohexidine digluconate, a 0.1% aqueous solution of Bardac22® and a mixture of equal parts of both compounds. The procedures of which these Tables illustrate the results comprise incubation of 72 hours at 37° C. and the use of the following inactivating substances as controls: • A: 3% Tween®80+0.3% lecithin+0.1% cysteine • B: 3% Tween®80+3% saponin+0.1% cysteine+0.1% histidine; • C: 3% Tween®80+0.3% lecithin+0.1% histidine+0.5% sodium thiosulphate.
In these Tables, the sign “+” indicates an increase and the sign “−” denotes the absence of growth.

[4] = test system: C. albicans ATCC 1031; experiment: Test 2 (DGHM), action as a function of disinfection time at 22° C., 8 × 10^7 organisms/ml; assay type: cell-based, Candida albicans
Method: as §1, §2, §3

[5] = test system: human fibroblastic cells; experiment: Cytotoxicity check of the products on human fibroblastic cells; assay type: cell-based; conditions: 0.04% solution at a dilution of 10^−3; 0.1 ml in 1 ml medium; 3 days
Method: Cytotoxicity checks are conducted on the products for cellular cultures used in the tests, that is to say the human fibroblastic cells.
The cells are cultivated on a Dulbecco medium enriched with 10% fetal calf serum; at the moment of their use, the cells are washed and the same culture medium is used but without calf serum.
For each product tested or each composition, 10 tubes of cellular culture were used and after inoculation of the product, the tubes were kept under observation for 3 days.
Each product was, in succession, used pure and at dilutions of 10^−1, 10^−2, 10^−3 and added to culture tubes containing 1 ml of nutrient medium in a volume of 0.1 ml.

CCCCCCCCCC[N+](C)(C)CCCCCCCCCC.[Cl-] [Bardac ®, didecyl dimethyl ammonium chloride]
+: growth ([2]; 0.05% vol/vol, 1 min) | growth ([2]; 0.05% vol/vol, 3 min) | growth ([2]; 0.05% vol/vol, 5 min) | growth ([2]; 0.05% vol/vol, 15 min) | growth ([2]; 0.05% vol/vol, 30 min) | growth ([2]; 0.05% vol/vol, 60 min) | growth ([2]; 0.1% vol/vol, 1 min) | growth ([2]; 0.1% vol/vol, 3 min) | growth ([2]; 0.1% vol/vol, 5 min) | growth ([2]; 0.1% vol/vol, 15 min) | growth ([2]; 0.1% vol/vol, 30 min) | growth ([2]; 0.1% vol/vol, 60 min) | growth ([2]; 0.5% vol/vol, 1 min) | growth ([2]; 0.5% vol/vol, 3 min) | growth ([2]; 0.5% vol/vol, 5 min) | growth ([2]; 0.5% vol/vol, 15 min) | growth ([2]; 0.5% vol/vol, 30 min) | growth ([2]; 0.5% vol/vol, 60 min) | growth ([2]; 1% vol/vol, 1 min) | growth ([2]; 1% vol/vol, 3 min) | growth ([2]; 1% vol/vol, 5 min) | growth ([2]; 1% vol/vol, 15 min) | growth ([2]; 5% vol/vol, 1 min) | growth ([2]; 5% vol/vol, 3 min) | growth ([2]; 5% vol/vol, 5 min) | growth ([2]; 10% vol/vol, 1 min) | growth ([2]; 25% vol/vol, 1 min) | growth ([3]; 0.00625% vol/vol, inactivator A) | growth ([3]; 0.00625% vol/vol, inactivator B) | growth ([3]; 0.00625% vol/vol, inactivator C) | growth ([3]; 0.00625% vol/vol, no inactivator) | growth ([3]; 0.0125% vol/vol, inactivator A) | growth ([3]; 0.0125% vol/vol, inactivator B) | growth ([3]; 0.0125% vol/vol, inactivator C) | growth ([3]; 0.0125% vol/vol, no inactivator) | growth ([3]; 0.025% vol/vol, inactivator A) | growth ([3]; 0.025% vol/vol, inactivator B) | growth ([3]; 0.025% vol/vol, inactivator C) | growth ([3]; 0.025% vol/vol, no inactivator) | growth ([3]; 0.05% vol/vol, inactivator A) | growth ([3]; 0.05% vol/vol, inactivator B) | growth ([3]; 0.05% vol/vol, inactivator C) | growth ([3]; 0.05% vol/vol, no inactivator) | growth ([3]; 0.1% vol/vol, inactivator A) | growth ([3]; 0.1% vol/vol, inactivator B) | growth ([3]; 0.1% vol/vol, inactivator C) | growth ([3]; 0.5% vol/vol, inactivator A) | growth ([3]; 0.5% vol/vol, inactivator B) | growth ([3]; 0.5% vol/vol, inactivator C) | growth ([3]; 1.0% vol/vol, inactivator A) | growth ([3]; 1.0% vol/vol, inactivator B) | growth ([3]; 1.0% vol/vol, inactivator C) | growth ([4]; 0.05% vol/vol, 1 min) | growth ([4]; 0.05% vol/vol, 3 min) | growth ([4]; 0.05% vol/vol, 5 min) | growth ([4]; 0.05% vol/vol, 15 min) | growth ([4]; 0.05% vol/vol, 30 min) | growth ([4]; 0.05% vol/vol, 60 min) | growth ([4]; 0.1% vol/vol, 1 min) | growth ([4]; 0.1% vol/vol, 3 min) | growth ([4]; 0.1% vol/vol, 5 min) | growth ([4]; 0.1% vol/vol, 15 min) | growth ([4]; 0.1% vol/vol, 30 min) | growth ([4]; 0.1% vol/vol, 60 min) | growth ([4]; 0.5% vol/vol, 1 min) | growth ([4]; 0.5% vol/vol, 3 min) | growth ([4]; 0.5% vol/vol, 5 min) | growth ([4]; 0.5% vol/vol, 15 min) | growth ([4]; 0.5% vol/vol, 30 min) | growth ([4]; 0.5% vol/vol, 60 min) | growth ([4]; 1% vol/vol, 1 min) | growth ([4]; 1% vol/vol, 3 min) | growth ([4]; 1% vol/vol, 5 min) | growth ([4]; 1% vol/vol, 15 min) | growth ([4]; 5% vol/vol, 1 min) | growth ([4]; 5% vol/vol, 3 min)
−: growth ([2]; 1% vol/vol, 30 min) | growth ([2]; 1% vol/vol, 60 min) | growth ([2]; 5% vol/vol, 15 min) | growth ([2]; 5% vol/vol, 30 min) | growth ([2]; 5% vol/vol, 60 min) | growth ([2]; 10% vol/vol, 3 min) | growth ([2]; 10% vol/vol, 5 min) | growth ([2]; 10% vol/vol, 15 min) | growth ([2]; 10% vol/vol, 30 min) | growth ([2]; 10% vol/vol, 60 min) | growth ([2]; 25% vol/vol, 3 min) | growth ([2]; 25% vol/vol, 5 min) | growth ([2]; 25% vol/vol, 15 min) | growth ([2]; 25% vol/vol, 30 min) | growth ([2]; 25% vol/vol, 60 min) | growth ([3]; 0.1% vol/vol, no inactivator) | growth ([3]; 0.5% vol/vol, no inactivator) | growth ([3]; 1.0% vol/vol, no inactivator) | growth ([4]; 1% vol/vol, 30 min) | growth ([4]; 1% vol/vol, 60 min) | growth ([4]; 5% vol/vol, 5 min) | growth ([4]; 5% vol/vol, 15 min) | growth ([4]; 5% vol/vol, 30 min) | growth ([4]; 5% vol/vol, 60 min) | growth ([4]; 10% vol/vol, 1 min) | growth ([4]; 10% vol/vol, 3 min) | growth ([4]; 10% vol/vol, 5 min) | growth ([4]; 10% vol/vol, 15 min) | growth ([4]; 10% vol/vol, 30 min) | growth ([4]; 10% vol/vol, 60 min) | growth ([4]; 25% vol/vol, 1 min) | growth ([4]; 25% vol/vol, 3 min) | growth ([4]; 25% vol/vol, 5 min) | growth ([4]; 25% vol/vol, 15 min) | growth ([4]; 25% vol/vol, 30 min) | growth ([4]; 25% vol/vol, 60 min)
0.001% and 0.0125% and 0.0005%: Concentration at which hemolysis is not observed [1]
0.1%: dilution of the 0.1% solution inhibiting growth [3]
not toxic: toxicity for the cell cultures [5]
0.0001%: concentration of active substance inhibiting growth [3]
